Test system: STZ-induced diabetic rats
Assay: Study No 2: biochemical parameters in STZ-induced diabetic rats
Type: in vivo, Wistar rats
[1] = after 28 days, HCQ 22.5, VG 6, SG 0.3 mg/kg alone, HCQ+VG 22.5+6, HCQ+SG 22.5+0.3 mg/kg/day, oral
[2] = after 28 days, HCQ 45, VG 12, SG 0.6 mg/kg alone, HCQ+VG 45+12, HCQ+SG 45+0.6 mg/kg/day, oral
[3] = monotherapies, all the tested dose levels except HCQ (22.5 mg/kg), p≦0.05

SMILES: CCN(CCO)CCCC(C)Nc1ccnc2cc(Cl)ccc12 (centres unmarked) [HCQ, Hydroxychloroquine]
- HbA1c [1]: 11.28 ± 1.08 %
- Total Protein [1]: 6.16 ± 0.41 gm/dl
- Urea [1]: 24.68 ± 1.96 mg/dL
- Creatinine [2]: 1.75 ± 0.29 mg/dL
- HbA1c [2]: 11.07 ± 1.22 %
- Total Protein [2]: 6.35 ± 0.79 gm/dl
- Urea [2]: 23.37 ± 2.86 mg/dL
- HbA1c levels as compared to diabetic control (all tested doses, 28 days, p≦0.05): significantly (p≦0.05) reduced
- total protein level as compared to the diabetic control group (monotherapies at all doses, 28 days, p≦0.05): significant rise
- creatinine levels as compared to diabetic control group [3]: significant reduction
- urea levels as compared to diabetic control group [3]: significant reduction

From US20140128402A1, “PHARMACEUTICAL COMBINATION” (IPCA Laboratories Limited, priority 2011, published 2014)
